In assay [1] the test system is bronchial hyperreactivity. The protocol: (§1) Mouse model of asthma. Female BALB/c mice (8 weeks: Charles River) were sensitized through subcutaneous administration of Ovalbumin (100 μg dissolved in 400 μl of AlOH3 13.5 mg/ml) on days 0 and 8, on the twenty-first day the mice were stimulated by aerosolic administration of Ovalbumin (3% for twenty minutes). The mice were sacrificed after 48 hours and the bronchi used for the evaluation of bronchial reactivity at carbachol and salbutamol. The drugs were administered intraperitoneally prior to each exposure to the allergen. […] Pulmonary tissues were harvested and used for dosage of cytokines such as IL-4 and IL-13. In addition plasma levels of IgE were measured.

For a further assay, the system named is IgE. The conditions noted are these: 0.3 mg/Kg; FIG. 18-A. The method, then: as §1
In the next assay the test system is bronchial rings. The conditions noted are these: Montelukast 1 μM, in vitro, FIG. 12.
A further assay relates to Paw mouse edema. To be noted: 0.3 mg/kg intraperitoneal, 30 minutes before intraplantar carrageenin; FIG. 13.

Entries after “also recorded” stand apart in the source; their conditions may differ.

In the case of `CC(C)(O)c1ccccc1CCC(SCC1(CC(=O)O)CC1)c1cccc(C=Cc2ccc3ccc(Cl)cc3n2)c1.COc1ccc(CC(C)NCC(O)c2ccc(O)c(NC=O)c2)cc1` (centres unmarked) [Montelukast formoterol salt, N-(2-(3-formamido-4-hydroxyphenyl)-2-hydroxyethyl)-1-(4-methoxy-phenyl)propan-2-aminium-2-(1-(((1-(3-(2-(7-chloroquinolin-2-yl)vinyl)-phenyl)-3-(2-(2-hydroxypropan-2-yl)phenyl)propyl)thio-)methyl)cyclopropyl)acetate], the “therapeutic efficacy in controlling the development of hyperreactivity to carbachol induced by sensitization” value in assay [1] (salt […] vs Formoterol 0.3 mg/kg and Montelukast 0.3 mg/kg (almost double molar dose), FIG. 16) is “significantly higher than the parent drugs Formoterol and Montelukast”. For the same compound, the “therapeutic efficacy in controlling the airway dysfunction induced by sensitization” value in assay [1] (salt at halved molar dose respect to single drugs) was “significantly higher than Formoterol and Montelukast; also recorded: more efficiently reverses both airway effects”.
Take `CC(C)(O)c1ccccc1CC[C@@H](SCC1(CC(=O)O)CC1)c1cccc(/C=C/c2ccc3ccc(Cl)cc3n2)c1` [Montelukast, (R,E)-2-(1-((1-(3-(2-(7-Chloroquinolin-2-yl)vinyl)phenyl)-3-(2-(2-hydroxypropan-2-yl)phenyl)propylthio)-methyl)cyclopropyl)acetic acid]: in the assay with IgE, the IgE plasma levels entry is reported as “unaffected”. Besides, in the assay with bronchial rings, the “effect of Montelukast preincubation on the bronchodilating response of Formoterol” value is “does not alter the bronchodilating response of the Formoterol, preserves its efficacy”. Further, the anti-inflammatory effect entry in the assay on Paw mouse edema is “induces an anti-inflammatory effect”.
